Patent US5681691A, “Photographic element containing an improved pyrazolotriazole coupler” (Eastman Kodak Company, priority 1996, dated 1997)

Experiments:
[1] = Activity of image coupler in single layer film (maximum slope relative to control coupler C-1); settings: developer pH=10, ratio to maximum slope of C-1 control, higher ratio implies higher activity
Protocol: (§1) The emulsion was an undyed, but chemically sensitized, 0.7 micron polymorphic silver iodobromide emulsion containing 3.5% mole of iodide. The coating structure is shown below.
(§2) Monolayer coatings were panchromatically exposed and processed in developer solutions of different pH values. A stop bath was used to eliminate any complications due to the continuing coupling reaction. The processing procedure and solution formulations are listed below.
Further single layer film elements were prepared as above, given a stepped exposure and processed (developer pH=10). The activity of an image coupler was determined by determining the maximum slope between any two adjacent steps for the coupler and dividing by the maximum slope of a corresponding control sample containing coupler C-1 processed at the same time as the sample. A higher ratio implies higher activity. The logP of the R3 fragment (a quantity also referred to as π) was calculated as described in the Detailed Description of the invention.

[2] = pH sensitivity of gamma in single layer film, normalized to C-1; settings: developer pH 9.75, 10, 10.37, normalized by division with pH sensitivity of C-1
From the text: To measure the pH sensitivity of a single layer film, the following was done. A stepped exposure was applied to three identical strips of the film. One strip was processed with the normal C-41 process at pH of about 10. A second strip was processed in the same developer in which the pH was decreased to 9.75, while the third strip was processed in the same developer in which the pH was increased to 10.37.
as §1, §2
The D-logE Status M gamma was measured for each film and the three gammas were used as input to a least-squares regression in which gamma was the response, and the factors were pH and pH-squared in a linear model with an intercept. Before regression, the three pH values were shifted (centered) to have a mean of zero (-0.31, 0, 0.31). The coefficient of the main effect, pH, in the regression is the pH sensitivity of gamma, which was normalized by division with the pH sensitivity of the comparison coupler C-1 (Table 2) that was processed at the same time as each test coupler.

[3] = Green pH sensitivity of gamma in multilayer film (format ML-A), normalized to C-1; settings: for pH Sensitivity: multilayer film ML-A, developer pH 9.95 to 10.15, relative normalized pH sensitivity of green gamma vs C-1
From the text: The formulas for the multilayer organic components are provided following the examples. The multilayer format used was an ISO 200 speed format (designated ML-A).
Table 4 indicates the experiment number, whether it is a comparative or inventive example, the magenta coupler used in the designated green sensitive layers and the laydown in each of those layers.
To measure the green pH sensitivity of a multilayer film, the following was done. A neutral stepped exposure was applied to nine 35-mm strips of the film. One strip was processed with the normal C-41 process. The other eight strips were processed in a 2**3 factorial design in which the pH of the developer solution was varied from 9.95 to 10.15, the bromide was varied from 0.8 g/L to 1.8 g/L, and the concentration of the developer was varied from 3.5 g/L to 5.5 g/L. The green Status M photographic D-logE gammas were measured for each film at mid-exposure, and each gamma was normalized by dividing by the average gamma for all nine strips.
The nine normalized gammas that were obtained at the nine combinations of pH, Br, and developer concentration were used as input to a least-squares regression in which normalized gamma was the response, and the factors were pH, Br, and developer concentration in a linear model with an intercept. The coefficient of pH is the sensitivity of normalized gamma to pH, and this was further normalized (divided) by the sensitivity of the comparison coupler C-1 (Table 2) that was processed at the same time as each test coupler.

Row | Structure (SMILES) | Activity [1] | pH Sensitivity [2] | pH Sensitivity [3] | Activity ([1]; listed as SL-11) | magenta dye formed from coupler remaining in the film after processing ([3]; multilayer, solubility and washout of its magenta dye)
1 | CCCCCCCCCCCCCCCC(=O)N(Cc1ccc(C(=O)O)cc1)C(C)c1n[nH]c2c(Cl)c(C)nn12 (centres unmarked) [Mag C-5] | 1.34 | 1.32 |  |  | 
2 | CCCCCCCCCCCCCCCCCC(=O)N(CCCCCC(=O)O)C(C)c1n[nH]c2c(Cl)c(C)nn12 (centres unmarked) [Mag C-7] | 1.04 | 1.32 |  |  | 
3 | CCCCCCCCCCCCCCCC(=O)N(c1ccc(CC(=O)O)cc1)C(c1ccccc1)c1n[nH]c2c(Cl)c(C)nn12 (centres unmarked) [Mag C-4] | 0.87 | 1.32 |  |  | 
4 | CCCCCCCCCCCCCCCCCCCCCC(=O)N(c1cccc(C(=O)O)c1)C(C)c1n[nH]c2c(Cl)c(C)nn12 (centres unmarked) [Mag-1] | 1.50 | 0.83 | 0.52 |  | 
5 | CCCCCCCCCCCCCCCCCCCCCC(=O)N(c1cccc(C(=O)OC)c1)C(C)c1n[nH]c2c(Cl)c(C)nn12 (centres unmarked) [Mag C-14] | 0.43 |  |  | substantial loss of activity | 
6 | CCCCCCCCCCCCCCCC(=O)N(c1cccc(C(=O)O)c1)C(C)c1n[nH]c2c(Cl)c(C)nn12 (centres unmarked) [Mag C-10] | 1.52 | 0.51 | 0.66 |  | 
7 | CCCCCCCCCCCCCCCc1cccc(OC(CCCC)C(=O)N(c2cccc(C(=O)O)c2)C(C)c2n[nH]c3c(Cl)c(C)nn23)c1 (centres unmarked) [Mag-7] | 1.22 | 0.83 | 0.59 |  | 
8 | CCCCCC(=O)N(c1cccc(C(=O)O)c1)C(C)c1n[nH]c2c(Cl)c(C)nn12 (centres unmarked) [Mag C-15] |  |  | 0.41 |  | very little
9 | CCCCCCCCCCCCCCCC(=O)N(c1cccc(CC(=O)O)c1)C(c1ccccc1)c1n[nH]c2c(Cl)c(C)nn12 (centres unmarked) [Mag C-8] | 1.26 | 1.43 |  |  | 
10 | CCCCCCCCCCCCCCCCCC(=O)N(c1cccc(C(=O)O)c1)C(C)c1n[nH]c2c(Cl)c(C)nn12 (centres unmarked) [Mag C-11] | 1.33 | 1.05 | 0.63 |  | 
11 | CCCCCCCCCCCCCCCCCCCCCC(=O)N(c1cccc(C(=O)O)c1)C(CC)c1n[nH]c2c(Cl)c(C)nn12 (centres unmarked) [Mag-11] |  |  | 0.56 |  | 
12 | CCCCCCCCCCCCCCCCCCCC(=O)N(CCCC(=O)O)C(c1ccccc1)c1n[nH]c2c(Cl)c(C)nn12 (centres unmarked) [Mag C-12] | 0.91 | 0.75 |  |  | 
13 | CCCCCCCCCCCCC(c1n[nH]c2c(Cl)c(C)nn12)N(CCCCCCCC)C(=O)CCC(=O)O (centres unmarked) [Mag C-1] | 1.00 | 1.00 | 1.00 |  | 
14 | CCCCCCCCCCC(Oc1ccc(S(=O)(=O)c2ccc(O)cc2)cc1)C(=O)Nc1ccc(CCCc2n[nH]c3c(Cl)c(C)nn23)cc1 (centres unmarked) [Mag C-2] | 0.51 | 1.39 |  |  | 
15 | CCCCCCCCCCCCC(Oc1ccc(C(C)(C)CC(C)(C)C)cc1)C(=O)N(c1cccc(C(=O)O)c1)C(C)c1n[nH]c2c(Cl)c(C)nn12 (centres unmarked) [Mag-6] | 1.15 | 0.75 |  |  | 
16 | CCCCCCCCCCCCC(c1n[nH]c2c(Cl)c(C)nn12)N(C(=O)CCCCC)c1cccc(C(=O)O)c1 (centres unmarked) [Mag C-13] | 1.33 |  |  |  | 
